Source: US6599893B2, “Cephalosporin antibiotics and prodrugs thereof” (Essential Therapeutics, Inc., priority 2000, dated 2003)
In brackets after ≈: the same amount, converted by molar mass. Read-outs that look alike come from different tables or passages of the source.

Key:
S. aureus strain Smith = experiment: Experimental infection of mice, ED50; format: in vivo, Swiss-Webster mice; settings: 50% efficacious dose, S. aureus Smith, mice challenged intraperitoneally, compound subcutaneously at 0 and 2 h, total dose, 72 h survival; for ED50: Staphylococcus aureus, read-out: ED50, mg/kg (95% C.I.)
Procedure: Staphylococcus aureus strain Smith (ATCC 13709, penicillin-susceptible) or strain 76 (methicillin-resistant) was cultured overnight at 37° C. in brain-heart infusion broth (BHIB). The following morning, a portion of the culture was transferred to fresh BHIB and incubated for an additional 4-5 hours at 37° C. The cells were harvested by centrifugation, washed twice with PBS, and adjusted to the desired inoculum amount. The cell suspension was mixed with an equal volume of sterile 14% hog-gastric mucin (Comber K. R.; Osborne C. D.; Sutherland R.: Comparative effects of amoxicillin and ampicillin in the treatment of experimental mouse infections. Antimicrobial Agents and Chemotherapy 7(2):179-185, 1975). The inoculum was kept in an ice bath until used (preferably in less than one hour).
Male Swiss-Webster mice were challenged intraperitoneally with 0.5 mL of a bacterial suspension of S. aureus strain Smith (LD50). Test compounds were administered subcutaneously in 0.1 mL volumes immediately after inoculation and 2 hours later. […] The total dose associated with 50% survival (ED50) was determined using the probit method (Pasiello, A. P., J. M. Essigmann, and G. N. Wogan.: Rapid and accurate determination of median lethal dose (LD50) and its error with a small computer. J Toxicol. Environ. Health. 3:797-809, 1977).

[1] = system: Enterococcus faecium ATCC 35667; experiment: Broth microdilution MIC, E. faecium ATCC 35667; format: cell-based; settings: Enterococcus faecium ATCC 35667; for MIC: ATCC35667, read-out: MIC E. f. 35667
Procedure: (§1) Compounds were evaluated for antimicrobial activity against a panel of bacterial strains using a broth microdilution assay performed as recommended by the NCCLS (NCCLS (National Committee for Clinical Laboratory Standards). 1993. Methods for dilution antimicrobial susceptibility tests for bacteria that grow aerobically. NCCLS Document M7-A3, 1993. In: NCCLS Antimicrobial Susceptibility Testing, 3rd Ed.)
(§2) The minimum inhibitory concentration (MIC) is defined as the lowest concentration of a compound that prevents the growth of the bacteria.

[2] = system: Staphylococcus aureus COL (MRSA, non-β-lactamase producing); experiment: Broth microdilution MIC, S. aureus COL; format: cell-based; settings: Staphylococcus aureus COL (MRSA, non-β-lactamase producing); for MIC: read-out: MIC S. a. COL
Procedure: as §1, §2

[3] = system: Staphylococcus aureus ATCC 29213 (MSSA); experiment: Broth microdilution MIC, S. aureus ATCC 29213; format: cell-based; settings: Staphylococcus aureus ATCC 29213 (MSSA); for MIC: read-out: MIC S. a. 29213
Procedure: as §1, §2

[4] = system: Staphylococcus aureus 76 (MRSA, β-lactamase producing); experiment: Broth microdilution MIC, S. aureus 76; format: cell-based; settings: Staphylococcus aureus 76 (MRSA, β-lactamase producing); for MIC: read-out: MIC S. a. 76
Procedure: as §1, §2

[5] = system: Enterococcus faecalis ATCC 29212; experiment: Broth microdilution MIC, E. faecalis ATCC 29212; format: cell-based; settings: Enterococcus faecalis ATCC 29212; for MIC: ATCC29212, read-out: MIC E. f. 29212
Procedure: as §1, §2

[6] = system: Staphylococcus aureus Smith (MSSA); experiment: Broth microdilution MIC, S. aureus Smith; format: cell-based; settings: Staphylococcus aureus Smith (MSSA); for MIC: read-out: MIC S. a. Smith
Procedure: as §1, §2

[7] = Human serum binding by ultrafiltration; format: in vitro ADME
Procedure: Binding of several representative compounds of this invention in pooled human serum was determined using ultrafiltration. Compounds were incubated in serum for 10 minutes at 37° C. in a shaking water bath. Serum ultrafiltrate was accomplished by centrifugation (Amicon Centrifree) for 20 minutes at 25° C. Compound content in the ultrafiltrate was quantified by HPLC. An ultrafilrate obtained by following the same procedure with no added compound was used as a standard.

[8] = pooled human serum, ultrafiltration, 10 minutes at 37° C.

SMILES | MIC [1] [µg/mL] | MIC [2] [µg/mL] | MIC [3] [µg/mL] | MIC [4] [µg/mL] | MIC [5] [µg/mL] | MIC [6] [µg/mL] | HSB, human serum binding [7, 8] [%] | MIC E. f. 35667 [1] [µg/mL] | MIC S. a. COL [2] [µg/mL] | MIC S. a. 29213 [3] [µg/mL] | MIC S. a. 76 [4] [µg/mL] | MIC E. f. 29212 [5] [µg/mL] | MIC S. a. Smith [6] [µg/mL] | ED50 (S. aureus strain Smith) [mg/kg] | ED50, mg/kg (95% C.I.) (S. aureus strain Smith) | HSB, human serum binding [7] [%]
Nc1nc(/C(=N/OC2CCCC2)C(=O)N[C@@H]2C(=O)N3C(C(=O)O)=C(Sc4ccnn4-c4ccccc4)CS[C@H]23)cs1 [Compound 13] | 4 (≈ 6.54 µM) | 2 (≈ 3.27 µM) | 0.5 (≈ 0.817 µM) | 4 (≈ 6.54 µM) | 2 (≈ 3.27 µM) | 0.5 (≈ 0.817 µM) |  |  |  |  |  |  |  | > 10 |  | 
Nc1nc(/C(=N/OCC2CC2)C(=O)N[C@@H]2C(=O)N3C(C(=O)O)=C(Sc4ccnn4-c4ccccc4)CS[C@H]23)cs1 [Compound 19] | 16 (≈ 26.8 µM) | 4 (≈ 6.69 µM) | 0.5 (≈ 0.837 µM) | 8 (≈ 13.4 µM) | 16 (≈ 26.8 µM) | 0.5 (≈ 0.837 µM) |  |  |  |  |  |  |  | > 10 |  | 
Nc1nc(/C(=N/O)C(=O)N[C@@H]2C(=O)N3C(C(=O)O)=C(Sc4ccncc4CSCCNC=O)CS[C@H]23)c(Cl)s1 [Compound 27] |  |  |  |  |  |  |  | 1 (≈ 1.59 µM) | 2 (≈ 3.17 µM) | 0.25 (≈ 0.397 µM) | 4 (≈ 6.35 µM) | 0.25 (≈ 0.397 µM) | 0.25 (≈ 0.397 µM) |  | 2.27 (1.0-5.5) mg/kg | 94

Continued, in another order:

MIC [1] [µg/mL] | MIC [2] [µg/mL] | MIC [3] [µg/mL] | MIC [4] [µg/mL] | MIC [5] [µg/mL] | MIC [6] [µg/mL] | HSB, human serum binding [7, 8] [%] | MIC E. f. 35667 [1] [µg/mL] | MIC S. a. COL [2] [µg/mL] | MIC S. a. 29213 [3] [µg/mL] | MIC S. a. 76 [4] [µg/mL] | MIC E. f. 29212 [5] [µg/mL] | MIC S. a. Smith [6] [µg/mL] | SMILES | ED50 (S. aureus strain Smith) [mg/kg] | ED50, mg/kg (95% C.I.) (S. aureus strain Smith) | HSB, human serum binding [7] [%]
4 (≈ 6.52 µM) | 2 (≈ 3.26 µM) | 0.5 (≈ 0.815 µM) | 4 (≈ 6.52 µM) | 2 (≈ 3.26 µM) |  |  |  |  |  |  |  |  | CCC(CC)O/N=C(\C(=O)N[C@@H]1C(=O)N2C(C(=O)O)=C(Sc3ccnn3-c3ccccc3)CS[C@H]12)c1csc(N)n1 [Compound 17] | > 10 |  | 
2 (≈ 3.9 µM) | 2 (≈ 3.9 µM) | 0.25 (≈ 0.487 µM) | 2 (≈ 3.9 µM) | 0.5 (≈ 0.975 µM) | 0.25 (≈ 0.487 µM) | 98 |  |  |  |  |  |  | Nc1nc(/C(=N/O)C(=O)N[C@@H]2C(=O)N3C(C(=O)O)=C(Sc4ccncc4)CS[C@H]23)c(Cl)s1 [Compound 21] | 3.6 |  | 
 |  |  |  |  |  |  | 0.25 (≈ 0.393 µM) | 1 (≈ 1.57 µM) | 0.25 (≈ 0.393 µM) | 2 (≈ 3.14 µM) | 0.125 (≈ 0.196 µM) | 0.25 (≈ 0.393 µM) | Nc1nc(/C(=N/O)C(=O)N[C@@H]2C(=O)N3C(C(=O)O)=C(Sc4ccncc4CSc4ccncc4)CS[C@H]23)c(Cl)s1 [Compound 25] |  | >5 mg/kg | >99
 |  |  |  |  |  | >99 | 0.5 (≈ 0.76 µM) | 1 (≈ 1.52 µM) | 0.25 (≈ 0.38 µM) | 2 (≈ 3.04 µM) | 0.25 (≈ 0.38 µM) | 0.06 (≈ 0.0912 µM) | Nc1nnc(SCc2cnccc2SC2=C(C(=O)O)N3C(=O)[C@@H](NC(=O)/C(=N\O)c4nc(N)sc4Cl)[C@H]3SC2)s1 [Compound 26] |  | 0.38 (01-0.7) mg/kg | 
